Results on 16 compounds are retold here after patent US6831199B1, “Pyrimidine compounds and derivatives thereof” (G. D. Searle & Co., priority 1995, dated 2004).

Structures can show the parent of a compound that is named as a salt.

Test [1] deals with T1, Human vitronectin receptor (αvβ3) (Homo sapiens, UniProt P05106+P06756).
T1 construct: Human vitronectin receptor (αvβ3) was purified from human placenta; from tissue; host or cells: human placenta
The test is described as follows: Vitronectin adhesion assay (solid phase receptor assay, competition with biotinylated vitronectin). Type of test: binding. The following applies: read-out: AvB3 IC50. The protocol: VITRONECTIN ADHESION ASSAY
Assay buffer, OPD substrate tablets, and RIA grade BSA were obtained from Sigma (St. Louis, Mo.). Anti-biotin antibody was obtained from Calbiochem (La Jolla, Calif.). Linbro microtiter plates were obtained from Flow Labs (McLean, Va.). ADP reagent was obtained from Sigma (St. Louis, Mo.).
(§1) Solid Phase Receptor Assays
(§2) The purified human vitronectin receptor (αvβ3) was diluted from stock solutions to 1.0 μg/mL in Tris-buffered saline containing 1.0 mM Ca^++, Mg^++, and Mn^++, pH 7.4 (TBS^+++). The diluted receptor was immediately transferred to Linbro microtiter plates at 100 μL/well (100 ng receptor/well). The plates were sealed and incubated overnight at 4° C. to allow the receptor to bind to the wells. All remaining steps were at room temperature. The assay plates were emptied and 200 μL of 1% RIA grade BSA in TBS^+++(TBS^+++/BSA) were added to block exposed plastic surfaces. Following a 2 hour incubation, the assay plates were washed with TBS^+++ using a 96 well plate washer. Logarithmic serial dilution of the test compound and controls were made starting at a stock concentration of 2 mM and using 2 nM biotinylated vitronectin in TBS^+++/BSA as the diluent. This premixing of labeled ligand with test (or control) ligand, and subsequent transfer of 50 μL aliquots to the assay plate was carried out with a CETUS Propette robot; the final concentration of the labeled ligand was 1 nM and the highest concentration of test compound was 1.0×10^−4 M. The competition occurred for two hours after which all wells were washed with a plate washer as before. Affinity purified horseradish peroxidase labeled goat anti-biotin antibody was diluted 1:3000 in TBS^+++/BSA and 125 μL were added to each well. After 30 minutes, the plates were washed and incubated with OPD/H2O2 substrate in 100 mM/L Citrate buffer, pH 5.0. The plate was read with a microtiter plate reader at a wavelength of 450 nm and when the maximum-binding control wells reached an absorbance of about 1.0, the final A450 were recorded for analysis. The data were analyzed using a macro written for use with the EXCEL™ spreadsheet program. The mean, standard deviation, and % CV were determined for duplicate concentrations. The mean A450 values were normalized to the mean of four maximum-binding controls (no competitor added)(B-MAX). The normalized values were subjected to a four parameter curve fit algorithm [Rodbard et al., Int.

Test [2] addresses T2, Human fibrinogen receptor (αIIbβ3) (Homo sapiens, UniProt P05106+P08514).
T2 construct: Human fibrinogen receptor (αIIbβ3) was purified from outdated platelets; from tissue; host or cells: outdated human platelets
The test is described as follows: Purified IIb/IIIa receptor assay (solid phase receptor assay, competition with biotinylated vitronectin). Format: binding. To be noted: read-out: IIb/IIIa IC50. The method, then:
PURIFIED IIb/IIIa RECEPTOR ASSAY
Human fibrinogen receptor (αIIbβ3) was purified from outdated platelets. […] Biotinylated human vitronectin was prepared by coupling NHS-biotin from Pierce Chemical Company (Rockford, Ill.) to purified vitronectin as previously described. […] Anti-biotin antibody was obtained from Calbiochem (La Jolla, Calif.). Linbro microtiter plates were obtained from Flow Labs (McLean, Va.). ADP reagent was obtained from Sigma (St. Louis, Mo.).
as §1
as §2, with “human fibrinogen” for “human vitronectin”, “receptor (αIIbβ3)” for “receptor (αvβ3)”, “in TBS^+++ (TBS^+++/BSA)” for “in TBS^+++(TBS^+++/BSA)”, “with […]” for “with OPD/H2O2”, “mM/L citrate” for “mM/L Citrate”, “fit algorithm, [Robard” for “fit algorithm [Rodbard”

Regarding `CCN/C(=N\C)Nc1cccc(C(=O)NCC(=O)NC(CC(=O)O)c2ccc(F)cc2)c1` (racemic) [Example 297, (±)β-[[2-[[[3-[[(ethylamino)(methylimino)methyl]amino]phenyl]carbonyl]amino]acetyl]amino]-4-fluorobenzenepropanoic acid, trifluoroacetate salt], the IC50 turned out to be 89.8 nM in test [1] and 3920 nM in test [2].

For the compound `CS(=O)(=O)c1cccc(C(CC(=O)O)NC(=O)CNC(=O)c2cccc(NC(=N)N)c2)c1` (stereo not drawn) [Example 247, β-[[2-[[[3-[(aminoiminomethyl)amino]phenyl]carbonyl]amino]acetyl]amino]-3-(methylsulfonyl)benzenepropanoic acid, bis(trifluoroacetate)salt], the IC50 in test [1] was determined as 1.24 nM; in test [2], 417 nM.

With `O=C(O)CC(NC(=O)CNC(=O)c1cccc(NC2=NCCCN2)c1)c1cc(Cl)cc(Cl)c1O` (racemic) [Example 237, (±)3,5-dichloro-2-hydroxy-β-[[2-[[[3-[(1,4,5,6-tetrahydropyrimidin-2-yl)amino]phenyl]carbonyl]amino]acetyl]amino]benzenepropanoic acid, trifluoroacetate salt, monohydrate], the IC50 in test [1] came to 0.57 nM; in test [2], 1950 nM.

For `Cc1cccc(C(CC(=O)O)NC(=O)CNC(=O)c2cccc(NC(=N)N)c2)n1` (racemic) [Example 246, (±)β-[[2-[[[3-[(aminoiminomethyl)amino]phenyl]carbonyl]amino]acetyl]amino]-6-methylpyridine-2-propanoic acid, bis(trifluoroacetate)salt], the IC50 in test [1] is 7.24 nM; in test [2] it was 802 nM.

For the compound `CCOC(=O)CC(NC(=O)CNC(=O)c1cccc(NC(=N)N)c1)c1ccc2c(c1)OCO2` (racemic) [Example 5, (±)ethyl β-[[2-[[[3-[(aminoiminomethyl)amino]phenyl]carbonyl]amino]acetyl]amino]-1,3-benzodioxole-5-propanoate, trifluoroacetate salt], the IC50 in test [1] turned out to be 227 nM; in test [2], 3150 nM.

For `N=C(N)Nc1cccc(C(=O)NCC(=O)NC(CC(=O)O)c2ncc[nH]2)c1` (racemic) [Example 364, (±)β-[[2-[[[3-[(aminoiminomethyl)amino]phenyl]carbonyl]amino]acetyl]amino]-1H-imidazole-2-propanoic acid, tris(trifluoroacetate)salt], the values for the IC50 in test [1] and in test [2] were 3.58 nM and 223 nM, respectively.

Turning to `CCOC(=O)NC(=N)Nc1cccc(C(=O)NCC(=O)NC(CC(=O)O)c2cc(Cl)cc(Cl)c2)c1` (stereo not drawn) [Example 241, 3,5-dichloro-β-[[2-[[[3-[[[(ethoxycarbonyl)amino]iminomethyl]amino]phenyl]carbonyl]amino]acetyl]amino]benzenepropanoic acid, trifluoroacetate salt, monohydrate], the results for the IC50 in test [1] and in test [2] were 557 nM and 17200 nM, respectively.

For `Nc1nnc(Nc2cccc(C(=O)NCC(=O)NC(CC(=O)O)c3cc(Cl)cc(Cl)c3)c2)[nH]1` (stereo not drawn) [Example 282, β-[[2-[[[3-[(5-amino-1,2,4-triazol-3-yl)amino]phenyl]carbonyl]amino]acetyl]amino]-3,5-dichlorobenzenepropanoic acid, trifluoroacetate salt], the figures for the IC50 in test [1] and in test [2] were 864 nM and 9770 nM, respectively.

`N=C(N)Nc1cccc(C(=O)NCC(=O)NC(CC(=O)O)c2ccc3c(c2)Cc2ccccc2-3)c1` (racemic) [Example 224, (±)β-[[2-[[[3-[(aminoiminomethyl)amino]phenyl]carbonyl]amino]acetyl]amino]-9H-fluorene-2-propanoic acid, trifluoroacetate salt]: the IC50 in test [1] worked out at 0.71 nM; in test [2], 25.9 nM.

`N=C(N)Nc1cccc(C(=O)NCC(=O)NC(CC(=O)O)c2cc(Cl)ccc2O)c1` (racemic) [Example 231, (±)β-[[2-[[[3-[(aminoiminomethyl)amino]phenyl]carbonyl]amino]acetyl]amino]-5-chloro-2-hydroxybenzenepropanoic acid, trifluoroacetate salt, monohydrate]: the IC50 is 2.99 nM in test [1] and 424 nM in test [2].

`C#C[C@H](CC(=O)OCC)NC(=O)CNC(=O)c1cccc(NC(=N)N)c1` [Example 58, ethyl 3S-[[2-[[[3-[(aminoiminomethyl)amino]phenyl)carbonyl]amino]acetyl]amino]-4-pentynoate, trifluoroacetate salt]: the values for the IC50 in test [1] and in test [2] were 162 nM and 5740 nM, respectively.

On to `C/N=C(/Nc1cccc(C(=O)NCC(=O)NC(CC(=O)O)c2ccc(F)cc2)c1)NC(C)C` (racemic) [Example 298, (±)4-fluoro-β-[[2-[[[3-[[[(1-methylethyl)amino](methylimino)methyl]amino]phenyl]carbonyl]amino]acetyl]amino]benzenepropanoic acid, trifluoroacetate salt], for which the IC50 in test [1] was 252 nM; in test [2] it was 5560 nM.

In the case of `O=C(O)CC(NC(=O)CNC(=O)c1cccc(Nc2cc(=O)[nH]c(=O)[nH]2)c1)c1cc(Cl)cc(Cl)c1` (stereo not drawn) [Example 284, 3,5-dichloro-β-[[2-[[[3-[[1,2,3,4-tetrahydro-2,4-dioxopyrimidin-6-yl)amino]phenyl]carbonyl]amino]acetyl]amino]benzenepropanoic acid], the IC50 in test [1] turned out to be 195 nM; in test [2], 18400 nM.

As for `N=C(N)Nc1cc(NC(=O)C(F)(F)F)cc(C(=O)NCC(=O)NC(CC(=O)O)c2cc(Cl)cc(Cl)c2)c1` (stereo not drawn) [Example 292, β-[[2-[[[3-[(aminoiminomethyl)amino]-5-(trifluoroacetyl)amino]phenyl]carbonyl]amino]acetyl]amino]-3,5-dichlorobenzenepropanoic acid, trifluoroacetate salt], the IC50 in test [1] was determined as 3.55 nM; in test [2], 337 nM.

In the case of `CCOc1cc(OCC)cc(C(CC(=O)O)NC(=O)CNC(=O)c2cccc(NC(=N)N)c2)c1` (stereo not drawn) [Example 249, β-[[2-[[[3-[(aminoiminomethyl)amino]phenyl]carbonyl]amino]acetyl]amino]-3,5-diethoxybenzenepropanoic acid, trifluoroacetate salt], the values for the IC50 in test [1] and in test [2] were 5.31 nM and 244 nM, respectively.

Regarding `Cc1cc(Br)cc(C(CC(=O)O)NC(=O)CNC(=O)c2cccc(NC(=N)N)c2)c1` (racemic) [Example 212, (±)β-[[2-[[[3-[(aminoiminomethyl)amino]phenyl]carbonyl]amino]acetyl]amino]-3-bromo-5-methylbenzenepropanoic acid, trifluoroacetate salt], the IC50 in test [1] came out at 1.93 nM; in test [2], 306 nM.
